Inhibition data for 38 compounds are collected here from patent publication US12428415B2, “Matriptase 2 inhibitors and uses thereof” (Disc Medicine, Inc., priority 2018, dated 2025).

Where two headings read alike, the source gives them in different places.

The inhibition is the change of the read-out against control, counted positive when it falls.

The target of the experiment is T1, Human Recombinant Matriptase 2 (Homo sapiens, UniProt Q8IU80).
T1 construct: purchased Enzo Life Sciences (an in-house preparation was also used) ALX-201-752-1
T1 sequence (Q8IU80 1-811): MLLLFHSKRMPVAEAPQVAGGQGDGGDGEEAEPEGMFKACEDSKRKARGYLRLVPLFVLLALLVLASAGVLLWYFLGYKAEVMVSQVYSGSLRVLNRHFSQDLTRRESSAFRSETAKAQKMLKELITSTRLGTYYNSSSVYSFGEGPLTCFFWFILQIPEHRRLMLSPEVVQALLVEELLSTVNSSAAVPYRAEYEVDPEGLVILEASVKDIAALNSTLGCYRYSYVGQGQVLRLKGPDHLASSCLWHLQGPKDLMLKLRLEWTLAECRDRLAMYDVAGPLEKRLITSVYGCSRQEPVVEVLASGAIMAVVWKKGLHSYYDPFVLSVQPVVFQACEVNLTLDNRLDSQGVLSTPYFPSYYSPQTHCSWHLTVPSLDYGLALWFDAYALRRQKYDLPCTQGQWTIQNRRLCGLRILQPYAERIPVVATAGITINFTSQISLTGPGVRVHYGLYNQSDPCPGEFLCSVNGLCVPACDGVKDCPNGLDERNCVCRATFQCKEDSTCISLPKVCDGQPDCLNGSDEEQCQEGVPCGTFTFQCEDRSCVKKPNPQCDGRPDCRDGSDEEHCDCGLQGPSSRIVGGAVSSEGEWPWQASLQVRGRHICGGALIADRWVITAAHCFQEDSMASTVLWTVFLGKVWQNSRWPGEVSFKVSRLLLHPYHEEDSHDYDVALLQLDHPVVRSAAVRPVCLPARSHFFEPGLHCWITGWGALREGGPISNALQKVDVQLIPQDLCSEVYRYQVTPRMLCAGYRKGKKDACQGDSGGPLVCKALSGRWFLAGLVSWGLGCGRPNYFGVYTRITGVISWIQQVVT
Nature of the experiment: Matriptase 2 fluorescence based inhibition assay, Method A (100 mM TRIS pH 9, 1 mg/mL BSA). To be noted: Assay Used = A, read-out: Mar-2 % inhibition at 1 uM. Format: biochemical. Put shortly: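 At 25° C in 100 mM TRIS pH 9 with 1 mg/mL BSA and 1% DMSO, compounds were preincubated 30 min with 7 nM commercial or 15 nM in-house protein before adding 100 μM Boc-Gln-Ala-Arg-7-amido-4-methyl coumarin. Fluorescence at 360/480 nm after 60 min; single points at 1 and 10 μM, IC50 by variable-slope nonlinear regression.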

Take `N=C(N)NCCCNC(=O)C1CCN(C(=O)c2cc3ccc(C(=N)N)cc3n2Cc2ccc(C(F)(F)F)cc2)CC1` [Compound I-359, 1-(6-Carbamimidoyl-1-(4-(trifluoromethyl)benzyl)-1H-indole-2-carbonyl)-N-(3-guanidinopropyl)-piperidine-4-carboxamide]: the inhibition at 1 µM (at 1 uM) lay in the range of 25 to 50%.

As for `N=C(N)NCCC1CCN(C(=O)c2cc3ccc(C(=N)N)cc3n2Cc2ccc3ccccc3c2)CC1` [Compound I-360], the inhibition at 1 µM (at 1 uM) is 25 to 50%.

For `N=C(N)NCCC1CCN(C(=O)c2cc3ccc(C(=N)N)cc3n2Cc2ccc(-c3ccccc3)cc2)CC1` [Compound I-361], the inhibition at 1 µM (at 1 uM) fell in the range of 0 to 25%.

In the case of `N=C(N)c1ccc2cc(C(=O)N3CCc4ccccc4C3)n(Cc3cccc(NC(=O)CCN)c3)c2c1` [Compound I-365], the inhibition at 1 µM (at 1 uM) lay within 0 to 25%.

Regarding `N=C(N)c1ccc2cc(C(=O)N3CCC(F)CC3)n(Cc3cccc(NC(=O)CCN)c3)c2c1` [Compound I-366], the inhibition at 1 µM (at 1 uM) is 0 to 25%.

Consider `N=C(N)c1ccc2cc(C(=O)N3CCC(F)(F)CC3)n(Cc3cccc(NC(=O)CCN)c3)c2c1` [Compound I-367], for which the inhibition at 1 µM (at 1 uM) lay in the range of 0 to 25%.

As for `N=C(N)c1ccc2cc(C(=O)N3CC[C@H](F)C3)n(Cc3cccc(NC(=O)CCN)c3)c2c1` [Compound I-368], the inhibition at 1 µM (at 1 uM) fell in the range of 0 to 25%.

As to `N=C(N)c1ccc2cc(C(=O)N3CCC(F)(F)C3)n(Cc3cccc(NC(=O)CCN)c3)c2c1` [Compound I-369], under “at 1 uM”, the inhibition at 1 µM was in the range of 0 to 25%.

Consider `N=C(N)c1ccc2cc(C(=O)N3CCC(CCN)CC3)n(Cc3ccc(NC(=O)CCCN)cc3)c2c1` [Compound I-372], for which the inhibition at 1 µM (at 1 uM) was in the range of 25 to 50%.

Consider `N=C(N)c1ccc2cc(C(=O)N3CCC(F)CC3)n(Cc3ccc(NC(=O)CCN)cc3)c2c1` [Compound I-373], for which, for the setting “at 1 uM”, the inhibition at 1 µM is 0 to 25%.

Turning to `N=C(N)c1ccc2cc(C(=O)N3CCC(F)(F)CC3)n(Cc3ccc(NC(=O)CCN)cc3)c2c1` [Compound I-374], the inhibition at 1 µM (at 1 uM) was 0 to 25%.

As for `N=C(N)c1ccc2cc(C(=O)N3CC[C@H](F)C3)n(Cc3ccc(NC(=O)CCN)cc3)c2c1` [Compound I-375], the inhibition at 1 µM (at 1 uM) lay within 0 to 25%.

Consider `N=C(N)c1ccc2cc(C(=O)N3CCC(F)(F)C3)n(Cc3ccc(NC(=O)CCN)cc3)c2c1` [Compound I-376], for which the inhibition at 1 µM (at 1 uM) was in the range of 0 to 25%.

As for `N=C(N)c1ccc2cc(C(=O)N3CCC(CF)CC3)n(Cc3ccc(NC(=O)CCN)cc3)c2c1` [Compound I-377], the inhibition at 1 µM (at 1 uM) was in the range of 0 to 25%.

Turning to `N=C(N)c1ccc2cc(C(=O)N3CCc4ccccc4C3)n(Cc3ccc(NC(=O)CCN)cc3)c2c1` [Compound I-378], for the setting “at 1 uM”, the inhibition at 1 µM fell in the range of 0 to 25%.

Regarding `NCCC1CCN(C(=O)c2cc3ccc(/C(N)=N\O)cc3n2Cc2ccc(-c3ccccc3)cc2)CC1` [Compound I-380], the inhibition at 1 µM (at 1 uM) was in the range of 0 to 25%.

As to `NCCC(=O)Nc1cccc(Cn2c(C(=O)N3CCC(CCN)CC3)cc3ccc(/C(N)=N/O)cc32)c1` [Compound I-381], the inhibition at 1 µM (at 1 uM) lay in the range of 0 to 25%.

Take `NCCCC(=O)Nc1cccc(Cn2c(C(=O)N3CCC(CCN)CC3)cc3ccc(/C(N)=N/O)cc32)c1` [Compound I-382]: under “at 1 uM”, the inhibition at 1 µM was 0 to 25%.

On to `NCCC(=O)Nc1ccc(Cn2c(C(=O)N3CCC(CCN)CC3)cc3ccc(/C(N)=N/O)cc32)cc1` [Compound I-383], for which the inhibition at 1 µM (at 1 uM) was 0 to 25%.

Turning to `NCCCC(=O)Nc1ccc(Cn2c(C(=O)N3CCC(CCN)CC3)cc3ccc(/C(N)=N/O)cc32)cc1` [Compound I-384], where the note is “at 1 uM”, the inhibition at 1 µM is 25 to 50%.

Regarding `CCNC(=O)c1ccc(Cn2c(C(=O)N3CCC(F)(F)C3)cc3ccc(C(=N)N)cc32)cc1` [Compound I-385, 4-((6-Carbamimidoyl-2-(3,3-difluoropyrrolidine-1-carbonyl)-1H-indol-1-yl)methyl)-N-ethylbenzamide], for the setting “at 1 uM”, the inhibition at 1 µM was in the range of 0 to 25%.

`CN(C)C(=O)c1ccc(Cn2c(C(=O)N3CCC(F)(F)C3)cc3ccc(C(=N)N)cc32)cc1` [Compound I-386]: the inhibition at 1 µM (at 1 uM) lay within 0 to 25%.

With `N=C(N)c1ccc2cc(C(=O)N3CCC(F)(F)C3)n(Cc3ccc(C(=O)NC4CC4)cc3)c2c1` [Compound I-387], the inhibition at 1 µM (at 1 uM) was 0 to 25%.

In the case of `CNC(=O)c1ccc(Cn2c(C(=O)N3CCC(F)CC3)cc3ccc(C(=N)N)cc32)cc1` [Compound I-388], the inhibition at 1 µM (at 1 uM) fell in the range of 0 to 25%.

As to `CN(C)C(=O)c1ccc(Cn2c(C(=O)N3CCC(F)CC3)cc3ccc(C(=N)N)cc32)cc1` [Compound I-389], where the note is “at 1 uM”, the inhibition at 1 µM lay within 0 to 25%.

Turning to `CCNC(=O)c1ccc(Cn2c(C(=O)N3CCC(F)CC3)cc3ccc(C(=N)N)cc32)cc1` [Compound I-390], the inhibition at 1 µM (at 1 uM) lay within 0 to 25%.

With `N=C(N)c1ccc2cc(C(=O)N3CCC(F)CC3)n(Cc3ccc(C(=O)NC4CC4)cc3)c2c1` [Compound I-391], where the note is “at 1 uM”, the inhibition at 1 µM is 0 to 25%.

`N=C(N)c1ccc2cc(C(=O)N3CCC(F)(F)C3)n(Cc3ccc(C(=O)NCCN)cc3)c2c1` [Compound I-392]: the inhibition at 1 µM (at 1 uM) was in the range of 0 to 25%.

For the compound `N=C(N)c1ccc2cc(C(=O)N3CCC(F)CC3)n(Cc3ccc(C(=O)NCCN)cc3)c2c1` [Compound I-393], the inhibition at 1 µM (at 1 uM) lay within 0 to 25%.

Turning to `NC(=O)c1ccc2cc(C(=O)N3CCc4ccccc4C3)n(Cc3ccc(-c4ccccc4)cc3)c2c1` [Compound I-394, 1-([1,1′-Biphenyl]-4-ylmethyl)-2-(1,2,3,4-tetrahydroisoquinoline-2-carbonyl)-1H-indole-6-carboxamide], the inhibition at 1 µM (at 1 uM) was in the range of 0 to 25%.

`N=C(N)c1ccc2cc(C(=O)N[C@H]3CC[C@H](N)CC3)n(S(=O)(=O)c3ccc4ccccc4c3)c2c1` [Compound I-397]: the inhibition at 1 µM (1 uM compound) is 25 to 50%.

Take `N/C(=N\O)c1ccc2cc(C(=O)NCC3CCNCC3)n(Cc3ccc4ccccc4c3)c2c1` [Compound I-398, 6-(N′-hydroxycarbamimidoyl)-1-(naphthalen-2-ylmethyl)-N-(piperidin-4-ylmethyl)-1H-indole-2-carboxamide]: for the setting “1 uM compound”, the inhibition at 1 µM was 0 to 25%.

As for `N/C(=N\O)c1ccc2cc(C(=O)N[C@H]3CC[C@H](N)CC3)n(Cc3ccc4ccccc4c3)c2c1` [Compound I-399], for the setting “1 uM compound”, the inhibition at 1 µM fell in the range of 0 to 25%.

On to `N/C(=N/O)c1ccc2cc(C(=O)N[C@H]3CC[C@H](N)CC3)n(Cc3cccc4ccccc34)c2c1` [Compound I-400], for which the inhibition at 1 µM (1 uM compound) is 25 to 50%.

For `COc1ccc2cc(Cn3c(C(=O)N[C@H]4CC[C@H](N)CC4)cc4ccc(/C(N)=N\O)cc43)ccc2c1` [Compound I-401], the inhibition at 1 µM (1 uM compound) lay in the range of 0 to 25%.

With `N=C(N)c1ccc2cc(C(=O)NCC3CCNCC3)n(Cc3ccc4ccccc4c3)c2c1` [Compound I-406, 6-carbamimidoyl-1-(naphthalen-2-ylmethyl)-N-(piperidin-4-ylmethyl)-1H-indole-2-carboxamide], the inhibition at 1 µM (1 uM compound) fell in the range of 25 to 50%.

Take `COc1ccc2cc(Cn3c(C(=O)N[C@H]4CC[C@H](N)CC4)cc4ccc(C(=N)N)cc43)ccc2c1` [Compound I-408]: for the setting “1 uM compound”, the inhibition at 1 µM was in the range of 50 to 75%.

Consider `N=C(N)c1ccc2cc(C(=O)NC3CCC(F)(F)CC3)n(Cc3ccc(NC(=O)CCN)cc3)c2c1` [I- s263], for which, where the note is “at 1 uM”, the inhibition at 1 µM fell in the range of 0 to 25%.
